Measurements published in ChEMBL document CHEMBL1201862, “PubChem BioAssay data set” (2004).
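Five compound concentrations were applied to cells in 96-well plates for 48 hours; endpoints were derived by simple linear interpolation of the resulting dose-response curve. The concentration for 50% growth inhibition is given as GI50.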 Activity calls are given as the source filed them. Rule as the data show it: active = GI50 up to about 1.1 µM and inactive = higher.

Tests used:
Assay in all cases: NCI tumour cell line growth inhibition, 48 h
786-0 = test system: 786-0
A498 = test system: A498
A549 = test system: A549
ACHN = test system: ACHN
COLO 205 = test system: COLO 205
EKVX = test system: EKVX
HCC 2998 = test system: HCC 2998
HT-29 = test system: HT-29
LOX IMVI = test system: LOX IMVI
MCF7 = test system: MCF7
MDA-MB-231 = test system: MDA-MB-231
MDA-N = test system: MDA-N
Malme-3M = test system: Malme-3M
NCI-H460 = test system: NCI-H460
NCI-H522 = test system: NCI-H522
OVCAR-8 = test system: OVCAR-8
SF-268 = test system: SF-268
SF-539 = test system: SF-539
SNB-75 = test system: SNB-75
UACC-62 = test system: UACC-62

SMILES | GI50 (786-0) | GI50 (A498) | GI50 (A549) | GI50 (ACHN) | GI50 (COLO 205) | GI50 (EKVX) | GI50 (HCC 2998) | GI50 (HT-29) | GI50 (LOX IMVI) | GI50 (MCF7) | GI50 (MDA-MB-231) | GI50 (MDA-N) | GI50 (Malme-3M) | GI50 (NCI-H460) | GI50 (NCI-H522) | GI50 (OVCAR-8) | GI50 (SF-268) | GI50 (SF-539) | GI50 (SNB-75) | GI50 (UACC-62)
CN(C)N1C(=O)c2ccccc2NC1c1ccccc1 (centres undefined) | > 100 µM (inactive) | > 100 µM (inactive) | > 100 µM (inactive) | > 100 µM (inactive) | > 100 µM (inactive) | > 100 µM (inactive) | > 100 µM (inactive) | > 100 µM (inactive) | > 100 µM (inactive) | > 100 µM (inactive) | > 100 µM (inactive) | > 100 µM (inactive) | > 100 µM (inactive) | > 100 µM (inactive) | > 100 µM (inactive) | > 100 µM (inactive) | > 100 µM (inactive) | > 100 µM (inactive) | > 100 µM (inactive) | > 100 µM (inactive)
COc1ccc(/C=C2\CCCCCC2=O)cc1 | > 100 µM (inactive) | > 100 µM (inactive) | > 100 µM (inactive) | > 100 µM (inactive) | > 100 µM (inactive) | > 100 µM (inactive) | > 100 µM (inactive) | > 100 µM (inactive) | > 100 µM (inactive) | > 100 µM (inactive) | > 100 µM (inactive) | > 100 µM (inactive) | > 100 µM (inactive) | > 100 µM (inactive) | > 100 µM (inactive) | > 100 µM (inactive) | > 100 µM (inactive) | > 100 µM (inactive) |  | > 100 µM (inactive)
COc1ccc(/C=C2\N=C3Sc4c([nH]cnc4=O)N3C2=O)cc1 | > 100 µM (inactive) | > 100 µM (inactive) | > 100 µM (inactive) | > 100 µM (inactive) | > 100 µM (inactive) | 78.9 µM (inactive) | 13.1 µM (inactive) | > 100 µM (inactive) | > 100 µM (inactive) | > 100 µM (inactive) | > 100 µM (inactive) | > 100 µM (inactive) | > 100 µM (inactive) |  | > 100 µM (inactive) | > 100 µM (inactive) | > 100 µM (inactive) | > 100 µM (inactive) | > 100 µM (inactive) | 
CC(O)/C=C/C1OC(=O)CC1Nc1ccc(C=O)cc1 (centres undefined) | > 100 µM (inactive) | > 100 µM (inactive) | > 100 µM (inactive) | > 100 µM (inactive) | 42.9 µM (inactive) | > 100 µM (inactive) | > 100 µM (inactive) | 41.7 µM (inactive) | > 100 µM (inactive) | 55.2 µM (inactive) | > 100 µM (inactive) | > 100 µM (inactive) | > 100 µM (inactive) | 11.2 µM (inactive) |  | > 100 µM (inactive) | > 100 µM (inactive) | 87.1 µM (inactive) | > 100 µM (inactive) | 23.7 µM (inactive)
COc1ccc([C@@]23Oc4cc(OC)cc(OC)c4[C@]2(O)[C@H](O)[C@H](C(=O)N(C)C)[C@H]3c2ccccc2)cc1 [ROCAGLAMIDE] | 0.00953 µM (active) | 0.00791 µM (active) | 0.00353 µM (active) | 0.00344 µM (active) | 0.00647 µM (active) | 0.0203 µM (active) | 0.00289 µM (active) | 0.00224 µM (active) | 0.00191 µM (active) | 0.00292 µM (active) | 0.00776 µM (active) | 0.00355 µM (active) | 0.00429 µM (active) | 0.0027 µM (active) | 0.0104 µM (active) | 0.0109 µM (active) | 0.00849 µM (active) |  | 0.00935 µM (active) | 0.00676 µM (active)
CC(C#N)Nc1ccc(Oc2ccc(C(C)(C)c3ccc(Oc4ccc(NC(C)C#N)cc4)cc3)cc2)cc1 (centres undefined) | > 100 µM (inactive) | > 100 µM (inactive) | > 100 µM (inactive) | > 100 µM (inactive) | > 100 µM (inactive) | > 100 µM (inactive) | 22.3 µM (inactive) | > 100 µM (inactive) | > 100 µM (inactive) | 6.25 µM (inactive) | > 100 µM (inactive) | > 100 µM (inactive) | > 100 µM (inactive) | > 100 µM (inactive) |  | > 100 µM (inactive) | 86.5 µM (inactive) | > 100 µM (inactive) | 92.5 µM (inactive) | > 100 µM (inactive)
C/C(=C/c1ccccc1)CN(C(=O)/C=C\Sc1ccccc1)C(C)(C)C | > 100 µM (inactive) | > 100 µM (inactive) | 60.1 µM (inactive) | > 100 µM (inactive) | > 100 µM (inactive) | > 70 µM (inactive) | 45.4 µM (inactive) | 36.4 µM (inactive) | > 66.4 µM (inactive) | 65.2 µM (inactive) | > 100 µM (inactive) | > 100 µM (inactive) | > 100 µM (inactive) | > 100 µM (inactive) | 10.1 µM (inactive) | > 83.8 µM (inactive) |  | > 91.2 µM (inactive) | > 100 µM (inactive) | > 100 µM (inactive)
N#CC1=C(S)N(C2OC(CO)C(O)C(O)C2O)C(c2ccccc2)=CC1c1cccs1 (centres undefined) | 16.5 µM (inactive) | > 10 µM (inactive) | 20 µM (inactive) | 18.7 µM (inactive) | 21.1 µM (inactive) |  | 21.7 µM (inactive) | 17 µM (inactive) | 18.7 µM (inactive) | 15.3 µM (inactive) | 27.2 µM (inactive) | 15.4 µM (inactive) | 19.3 µM (inactive) | 17.7 µM (inactive) | 18.1 µM (inactive) | 22.3 µM (inactive) | 24.8 µM (inactive) | 18.6 µM (inactive) | 20.5 µM (inactive) | 18.8 µM (inactive)
COCCNC1CCC(=O)c2[nH]c3ccccc3c21 (centres undefined) | > 100 µM (inactive) | > 100 µM (inactive) | > 100 µM (inactive) | > 100 µM (inactive) | > 100 µM (inactive) | 27.1 µM (inactive) | > 100 µM (inactive) | > 100 µM (inactive) | 94.4 µM (inactive) | > 100 µM (inactive) | > 100 µM (inactive) | > 100 µM (inactive) | > 100 µM (inactive) | > 100 µM (inactive) | > 100 µM (inactive) | > 100 µM (inactive) | > 100 µM (inactive) | > 100 µM (inactive) | > 100 µM (inactive) | 
CCc1nc2ccc(C(F)(F)F)cc2[nH]c1=O | > 100 µM (inactive) | 94.4 µM (inactive) | > 100 µM (inactive) | > 100 µM (inactive) | > 100 µM (inactive) | 44.5 µM (inactive) | > 100 µM (inactive) | > 100 µM (inactive) | > 100 µM (inactive) | > 100 µM (inactive) | 50.6 µM (inactive) | > 100 µM (inactive) | > 100 µM (inactive) | > 100 µM (inactive) |  | > 100 µM (inactive) | > 100 µM (inactive) | > 100 µM (inactive) | 89.5 µM (inactive) | > 100 µM (inactive)
CSc1ccc(/C=C2\N=C(c3ccccc3)N(c3nc4cc(Cl)c(F)cc4s3)C2=O)cc1 | 63.1 µM (inactive) | 43.5 µM (inactive) | 33.7 µM (inactive) | 36.4 µM (inactive) | 54.5 µM (inactive) | 28.3 µM (inactive) | 99.5 µM (inactive) | 49.4 µM (inactive) | 20.3 µM (inactive) | 39.9 µM (inactive) | 30.8 µM (inactive) | 30.3 µM (inactive) |  | 57.3 µM (inactive) |  | 20 µM (inactive) | 32.3 µM (inactive) | 26.3 µM (inactive) | 25 µM (inactive) | 43.6 µM (inactive)
O=C(N[C@H]1CCC[C@H]1C(=O)Nc1ccc(C(F)(F)F)cc1)OCc1ccccc1 | > 100 µM (inactive) | > 100 µM (inactive) | > 100 µM (inactive) | > 100 µM (inactive) | > 100 µM (inactive) | > 100 µM (inactive) | > 100 µM (inactive) | > 100 µM (inactive) | > 100 µM (inactive) | > 100 µM (inactive) | > 100 µM (inactive) | > 100 µM (inactive) | > 100 µM (inactive) | > 100 µM (inactive) | 54.2 µM (inactive) | > 100 µM (inactive) | > 100 µM (inactive) | > 100 µM (inactive) |  | > 100 µM (inactive)
CC(C)OC(=O)c1ccc(NCc2cc(O)ccc2O)cc1Cl | 2.09 µM (inactive) | 11 µM (inactive) | 12 µM (inactive) | 1.78 µM (inactive) | 2.3 µM (inactive) | 4.92 µM (inactive) | 3.59 µM (inactive) | 9.57 µM (inactive) | 3.27 µM (inactive) | 3.47 µM (inactive) | 4.18 µM (inactive) | 3.18 µM (inactive) |  | 6.08 µM (inactive) | 0.206 µM (active) | 2.77 µM (inactive) | 13.1 µM (inactive) | 1.75 µM (inactive) | 6.73 µM (inactive) | 5.26 µM (inactive)
COc1cccc(CCCNC(=O)Cc2ccccc2CO)c1 | > 100 µM (inactive) | > 100 µM (inactive) | > 100 µM (inactive) | > 100 µM (inactive) | > 100 µM (inactive) | > 100 µM (inactive) | > 100 µM (inactive) | > 100 µM (inactive) | > 100 µM (inactive) | > 100 µM (inactive) | > 100 µM (inactive) | > 100 µM (inactive) | > 100 µM (inactive) | > 100 µM (inactive) |  | > 100 µM (inactive) |  | > 100 µM (inactive) | > 100 µM (inactive) | > 100 µM (inactive)
